ChEMBL document CHEMBL3627677, “Novel 2H-chromen-2-one derivatives of resveratrol: Design, synthesis, modeling and use as human monoamine oxidase inhibitors” (Eur J Med Chem, 2015)

Columns and labels:
Homo sapiens [1] = species on record: Homo sapiens; assay: Selectivity ratio of IC50 for recombinant human MAOA to IC50 for recombinant human MAOB
[2] = target: T1, Amine oxidase [flavin-containing] A (Homo sapiens, UniProt P21397); assay: Inhibition of recombinant human MAOA using p-tyramine as substrate assessed as H2O2 production preincubated for 15 mins followed by substrate addition by fluorometric analysis
T1 sequence (P21397 whole entry): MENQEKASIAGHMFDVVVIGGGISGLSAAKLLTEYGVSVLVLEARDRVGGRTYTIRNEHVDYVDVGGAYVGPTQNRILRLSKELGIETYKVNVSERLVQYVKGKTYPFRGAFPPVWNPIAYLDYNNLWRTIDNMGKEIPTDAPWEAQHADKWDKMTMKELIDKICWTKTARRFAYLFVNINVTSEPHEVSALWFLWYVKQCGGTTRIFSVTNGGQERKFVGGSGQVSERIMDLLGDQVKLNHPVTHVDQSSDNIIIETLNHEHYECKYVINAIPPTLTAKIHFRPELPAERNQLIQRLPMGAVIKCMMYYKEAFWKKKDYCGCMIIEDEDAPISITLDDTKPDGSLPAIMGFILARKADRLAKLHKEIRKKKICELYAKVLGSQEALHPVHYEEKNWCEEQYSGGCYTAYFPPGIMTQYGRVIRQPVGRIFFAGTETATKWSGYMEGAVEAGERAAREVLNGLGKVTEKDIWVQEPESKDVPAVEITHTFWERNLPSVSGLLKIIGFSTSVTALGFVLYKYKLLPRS

Homo sapiens [3] = species on record: Homo sapiens; assay: Selectivity ratio of IC50 for recombinant human MAOB to IC50 for recombinant human MAOA
[4] = target: T2, Amine oxidase [flavin-containing] B (Homo sapiens, UniProt P27338); assay: Inhibition of recombinant human MAOB using p-tyramine as substrate assessed as H2O2 production preincubated for 15 mins followed by substrate addition by fluorometric analysis
T2 sequence (P27338 whole entry): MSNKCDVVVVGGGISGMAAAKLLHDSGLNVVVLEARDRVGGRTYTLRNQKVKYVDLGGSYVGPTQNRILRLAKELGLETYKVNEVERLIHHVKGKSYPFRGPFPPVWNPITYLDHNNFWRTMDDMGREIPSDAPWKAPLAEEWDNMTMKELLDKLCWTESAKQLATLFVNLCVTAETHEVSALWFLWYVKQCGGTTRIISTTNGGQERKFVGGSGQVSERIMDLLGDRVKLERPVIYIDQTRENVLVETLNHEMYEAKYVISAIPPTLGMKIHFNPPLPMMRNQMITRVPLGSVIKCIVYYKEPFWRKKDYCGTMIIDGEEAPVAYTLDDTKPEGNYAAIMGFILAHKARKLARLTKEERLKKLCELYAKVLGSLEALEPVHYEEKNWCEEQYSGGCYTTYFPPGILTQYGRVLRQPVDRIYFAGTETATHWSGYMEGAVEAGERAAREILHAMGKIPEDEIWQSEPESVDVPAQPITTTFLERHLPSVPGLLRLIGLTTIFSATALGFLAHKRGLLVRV

[5] = Toxicity in SPF Kuming mouse assessed as death at 500 to 1000 mg/kg, po measured up to 14 days; type: organism-based; details: in vivo

| Ratio IC50 (Homo sapiens [1]) | IC50 [2] [µM] | Ratio IC50 (Homo sapiens [3]) | IC50 [4] [µM] | SMILES | LD50 at 336 h [5] [mg/kg] |
| --- | --- | --- | --- | --- | --- |
| > 14.3 | > 60 | < 0.07 | 4.2 | COc1ccc(/C=C/c2cc(OC)cc(OC)c2/C=C/C(=O)c2cc3ccc(OC)cc3oc2=O)cc1 | – |
| 0.1 | 5.3 | 9.53 | 50.5 | C=CCc1cc(OC)c2oc(=O)c(C(=O)/C=C/c3c(/C=C/c4ccc(OC)cc4)cc(OC)cc3OC)cc2c1 | – |
| > 3 | > 60 | < 0.33 | 20 | COc1ccc(/C=C/c2cc(OC)cc(OC)c2/C=C/C(=O)c2cc3cccc(C)c3oc2=O)cc1 | – |
| – | > 60 | – | > 60 | COc1ccc(/C=C/c2cc(OC)cc(OC)c2/C=C/C(=O)c2cc3cc(Cl)ccc3oc2=O)cc1 | – |
| – | > 60 | – | > 60 | COc1ccc(/C=C/c2cc(OC)cc(OC)c2/C=C/C(=O)c2cc3cc(OC)ccc3oc2=O)cc1 | – |
| < 0.2 | 12.1 | > 4.95 | > 60 | COc1ccc(/C=C/c2cc(OC)cc(OC)c2/C=C/C(=O)c2cc3cc(Br)ccc3oc2=O)cc1 | – |
| > 2.68 | > 60 | < 0.37 | 22.4 | COc1ccc(/C=C/c2cc(OC)cc(OC)c2/C=C/C(=O)c2cc3cccc(OC)c3oc2=O)cc1 | – |
| – | > 60 | – | > 60 | COc1ccc(/C=C/c2cc(OC)cc(OC)c2/C=C/C(=O)c2cc3cccc(Br)c3oc2=O)cc1 | – |
| > 8.15 | > 60 | < 0.12 | 7.36 | COc1ccc(/C=C/c2cc(OC)cc(OC)c2/C=C/C(=O)c2cc3ccc(Cl)cc3oc2=O)cc1 | – |

The next lines start with the compound.

| SMILES | Ratio IC50 (Homo sapiens [1]) | IC50 [2] [µM] | Ratio IC50 (Homo sapiens [3]) | IC50 [4] [µM] | LD50 at 336 h [5] [mg/kg] |
| --- | --- | --- | --- | --- | --- |
| COc1ccc(/C=C/c2cc(OC)cc(OC)c2/C=C/C(=O)c2cc3c(OC)cccc3oc2=O)cc1 | > 4.13 | > 60 | < 0.24 | 14.5 | – |
| COc1ccc(/C=C/c2cc(OC)cc(OC)c2/C=C/C(=O)c2cc3cc(C)ccc3oc2=O)cc1 | 5.97 | 30.4 | 0.17 | 5.09 | – |
| COc1ccc(/C=C/c2cc(OC)cc(OC)c2/C=C/C(=O)c2cc3ccccc3oc2=O)cc1 | 4.54 | 41.7 | 0.22 | 9.17 | – |
| COc1ccc(/C=C/c2cc(OC)cc(OC)c2/C=C/C(=O)c2cc3c(OC)cc(OC)cc3oc2=O)cc1 | 0.6 | 21.2 | 1.67 | 35.5 | – |
| COc1ccc(/C=C/c2cc(OC)cc(OC)c2/C=C/C(=O)c2cc3ccc(N(C)C)cc3oc2=O)cc1 | – | – | – | > 60 | – |
| COc1ccc(/C=C/c2cc(OC)cc(OC)c2/C=C/C(=O)c2cc3ccc(Br)cc3oc2=O)cc1 | 0.05 | 3.01 | 18.4 | 55.3 | – |
| CCOc1ccc2cc(C(=O)/C=C/c3c(/C=C/c4ccc(OC)cc4)cc(OC)cc3OC)c(=O)oc2c1 | 0.15 | 7.07 | 6.8 | 48.1 | – |
| CCOc1cccc2cc(C(=O)/C=C/c3c(/C=C/c4ccc(OC)cc4)cc(OC)cc3OC)c(=O)oc12 | < 0.05 | 3.2 | > 18.8 | > 60 | > 1000 |
| COc1ccc(/C=C/c2cc(OC)cc(OC)c2/C=C/C(=O)c2cc3cc(F)ccc3oc2=O)cc1 | 4.36 | 44.3 | 0.23 | 10.2 | – |
| COc1ccc(/C=C/c2cc(OC)cc(OC)c2/C=C/C(=O)c2cc3ccc(C)cc3oc2=O)cc1 | 20.9 | 58.2 | 0.05 | 2.78 | > 1000 |
| COc1ccc(/C=C/c2cc(OC)cc(OC)c2/C=C/C(=O)c2cc3cc(Br)cc(OC)c3oc2=O)cc1 | – | > 60 | – | > 60 | – |
